pIC50: −log10 of the molar value.
Experiments:
5-HT2C receptor = target: T1, 5-HT2C receptor (Homo sapiens, UniProt P28335); test: Radioligand binding assay for 5-HT2C receptor ([3H]-mesulergine competitive binding); conditions: choroid plexus or recombinant 5-HT2C receptor expressed in CHO-K1 cells, read-out: binding affinity to 5-HT2C serotonin receptor expressed as IC50 value
T1 construct: expressed in transfected cells; host or cells: CHO-K1 (or COS-7) cells; alternatively choroid plexus tissue
T1 sequence (P28335 33-458): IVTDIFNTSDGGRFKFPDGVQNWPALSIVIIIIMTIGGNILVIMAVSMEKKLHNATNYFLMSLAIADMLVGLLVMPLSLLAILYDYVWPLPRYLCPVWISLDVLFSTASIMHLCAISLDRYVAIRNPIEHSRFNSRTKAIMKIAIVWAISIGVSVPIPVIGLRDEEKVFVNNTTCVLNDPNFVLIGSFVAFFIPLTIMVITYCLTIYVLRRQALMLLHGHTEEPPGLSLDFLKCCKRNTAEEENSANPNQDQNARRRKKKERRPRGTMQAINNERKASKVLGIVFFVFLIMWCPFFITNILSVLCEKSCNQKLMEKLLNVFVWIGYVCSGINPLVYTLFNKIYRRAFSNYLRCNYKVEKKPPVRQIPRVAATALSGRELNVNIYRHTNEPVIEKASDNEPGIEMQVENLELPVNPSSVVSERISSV
Experimental: (§1) The effect of the compounds of the present invention on the neurochemical steady state was determined by in vitro investigations such as a radionuclide-marked radioligand binding assay for 5-HT2A (Bonhaus D. W. Br. J. Pharmacol. 1995, 115:622; Saucier C. J. Neurochem. 1997, 68:1998) and 5-HT2C receptors (Wolf W. A. J. Neurochem. 1997, 69:1449), in vitro binding assay for σ1 receptor (Thomson W. and Donn R. Arthritis Res. 2002, 4: 302-306) and by in vivo investigations in a tail suspension test (Vogel H. G. and Vogel W. H. Drug Discovery and Evaluation Pharmacological Assays, Springer 1997, 304), in amphethamine-induced hyperlocomotion in mice (Millan M. J. et al, 1998 J Pharmacol. Exp. 7her. 287: 167-186), in a forced swim test in mice (Porsolt R. D. et al. Arch. Int. Pharmacodyn. 1977, 229:327-336), in meta-chlorophenyl piperazine (m-CPP) test on rats (Drug Dev. Res. 1989, 18:119-144), and in apomorphine, tryptamine and norepinephrine (ATN) test in rats (Arch. Int. Pharmacodyn. 1977, 227:238-253). […]
(§2) During incubation the radioligand bound to the receptor. When a binding balance was achieved, the receptors to which the radioligand was bound were separated from those to which said ligand was not bound, and the radioactivity of the receptor/radioligand complex was measured. […]

5-HT2A receptor = target: T2, 5-HT2A receptor (Homo sapiens, UniProt P28223); test: Radioligand binding assay for 5-HT2A receptor ([3H]-ketanserin competitive binding); conditions: human cortex or recombinant 5-HT2A receptor expressed in CHO-K1 cells, read-out: binding affinity to 5-HT2A serotonin receptor expressed as IC50 value
T2 construct: expressed in transfected cells; host or cells: CHO-K1 (or COS-7) cells; alternatively human cortex tissue
Experimental: as §1, §2

T2 sequence (P28223 whole entry): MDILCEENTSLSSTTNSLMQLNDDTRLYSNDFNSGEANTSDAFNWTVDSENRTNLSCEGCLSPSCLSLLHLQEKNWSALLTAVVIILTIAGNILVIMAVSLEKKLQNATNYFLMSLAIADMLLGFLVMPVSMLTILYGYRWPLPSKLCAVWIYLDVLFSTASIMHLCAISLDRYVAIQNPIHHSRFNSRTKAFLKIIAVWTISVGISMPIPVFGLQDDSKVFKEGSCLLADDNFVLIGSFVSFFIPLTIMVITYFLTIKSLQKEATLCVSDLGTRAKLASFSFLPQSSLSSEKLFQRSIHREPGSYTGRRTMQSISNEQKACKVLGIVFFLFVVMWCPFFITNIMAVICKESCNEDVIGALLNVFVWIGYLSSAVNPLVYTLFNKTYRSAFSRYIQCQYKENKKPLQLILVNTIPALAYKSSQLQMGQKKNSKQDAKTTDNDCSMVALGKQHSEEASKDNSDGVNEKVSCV

- pIC50 (5-HT2C receptor): > 6.70
- pIC50 (5-HT2A receptor): > 6.70
SMILES: CN(C)CCCOCc1nc2c(s1)-c1ccccc1Oc1ccc(Cl)cc1-2 [[3-(5-chloro-8-oxa-1-thia-3-aza-dibenzo[e,h]azulen-2-ylmethoxy)-propyl]-dimethyl-amine]

Source: patent US20070078123A1, “1-Thia-3-aza-dibenzo[e,h]azulenes for the treatment of central nervous system diseases and disorders” (PILVA-ISTRAZIVACKI INSTITUT D.O.O., priority 2003, published 2007)
